Reference: patent US9555038B2, “Heterocycle-substituted tetracyclic compounds and methods of use thereof for the treatment of viral diseases” (Merck Sharp & Dohme Corp., priority 2013, dated 2017)
pIC50: −log10 of the molar value. Read-outs that look alike come from different tables or passages of the source.

Columns and labels:
[1] = test system: HCV replicon 1AY93H; test: Cell-based HCV Replicon Assay A, replicon 1AY93H; conditions: for pIC50: read-out: 1A Y93H IC50, replicon 1AY93H; for IC50: Hepatitis C virus, read-out: 1A Y93H IC50 (nM), replicon 1AY93H
In short: (§1)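 2000 cells/well; 10 serial dilutions, top concentration 333.3 nM to 1.667 nM; 0.5% DMSO, 5% FBS; 3 days; lysis; multiplex TaqMan RT-PCR (NS5B/Neo plus cyclophilin), RNA from linear Ct standard curves.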

[2] = test system: HCV replicon 1A; test: Cell-based HCV Replicon Assay A, replicon 1A
In short: as §1

[3] = test system: HCV replicon 1B; test: Cell-based HCV Replicon Assay B, replicon 1B
In short: (§2)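 EC50 defined as the drug concentration giving a CT increase of 1 above projected baseline, from real-time RT-PCR of replicon RNA using genotype-specific primers and probes. Cells were seeded in 5% FBS, dosed after 24 h and incubated 3 days before lysis.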

[4] = test system: HCV replicon 2B; test: Cell-based HCV Replicon Assay A, replicon 2B; conditions: for pIC50: read-out: 2B IC50, replicon 2B; for IC50: Hepatitis C virus, read-out: 2B IC50 (nM), replicon 2B
In short: as §1

[5] = test system: HCV replicon 1AQ30D; test: Cell-based HCV Replicon Assay B, replicon 1AQ30D; conditions: for pIC50: read-out: 1A Q30D IC50, replicon 1AQ30D; for IC50: Hepatitis C virus, read-out: 1A Q30D IC50 (nM), replicon 1AQ30D
In short: as §2

CCc1ncc(C2Oc3cc(-c4cnc([C@@H]5CCCN5C(=O)[C@@H](NC(=O)OC)C(C)C)[nH]4)cc(F)c3-c3cc4cc(-c5cnc([C@@H]6C[C@H]7C[C@H]7N6C(=O)C(NC(=O)OC)C6CCOC(C)(C)C6)[nH]5)ccc4n32)s1 (single isomer, unassigned) [Compound 92]
pIC50 [1]: 11.35 | pIC50 ([2]; Hepatitis C virus): 11.43 | pIC50 ([3]; Hepatitis C virus): 11.22 | pIC50 [4]: 11.30 | pIC50 [5]: 10.19

CCc1ncc(C2Oc3cc(-c4cnc([C@@H]5CCCN5C(=O)[C@@H](NC(=O)OC)C(C)C)[nH]4)cc(F)c3-c3cc4cc(-c5cnc([C@@H]6C[C@H]7C[C@H]7N6C(=O)C(NC(=O)OC)C6CCOC(C)(C)C6)[nH]5)ccc4n32)s1 (single isomer, unassigned) [Compound 93]
pIC50 [1]: 10.37 | pIC50 [2]: 11.44 | pIC50 [3]: 11.52 | pIC50 [4]: 10.16 | pIC50 [5]: 9.20

CCc1ncc(C2Oc3cc(-c4cnc([C@@H]5CCCN5C(=O)[C@@H](NC(=O)OC)C(C)C)[nH]4)cc(F)c3-c3cc4cc(-c5cnc([C@@H]6C[C@H]7C[C@H]7N6C(=O)C(NC(=O)OC)C6CCOC(C)(C)C6)[nH]5)ccc4n32)s1 (single isomer, unassigned) [Compound 94]
pIC50 [1]: 11.46 | pIC50 [2]: 11.52 | pIC50 [3]: 11.52 | pIC50 [4]: 11.40 | pIC50 [5]: 10.35

CCc1ncc(C2Oc3cc(-c4cnc([C@@H]5CCCN5C(=O)[C@@H](NC(=O)OC)C(C)C)[nH]4)cc(F)c3-c3cc4cc(-c5cnc([C@@H]6C[C@H]7C[C@H]7N6C(=O)C(NC(=O)OC)C6CCOC(C)(C)C6)[nH]5)ccc4n32)s1 (single isomer, unassigned) [Compound 95]
pIC50 [1]: 10.43 | pIC50 [2]: 11.54 | pIC50 [3]: 11.30 | pIC50 [4]: 10.07 | pIC50 [5]: 9.48

CCc1ncc(C2Oc3cc(-c4cnc([C@@H]5CCCN5C(=O)[C@@H](NC(=O)OC)C(C)C)[nH]4)cc(F)c3-c3cc4cc(-c5cnc([C@@H]6C[C@H]7C[C@H]7N6C(=O)[C@@H](NC(=O)OC)C6C[C@@H](C)O[C@@H](C)C6)[nH]5)ccc4n32)s1 (single isomer, unassigned) [Compound 96]
pIC50 [1]: 11.43 | pIC50 ([2]; Hepatitis C virus): 11.62 | pIC50 ([3]; Hepatitis C virus): 11.52 | pIC50 [4]: 11.22 | pIC50 [5]: 10.70

CCc1ncc(C2Oc3cc(-c4cnc([C@@H]5CCCN5C(=O)[C@@H](NC(=O)OC)C(C)C)[nH]4)cc(F)c3-c3cc4cc(-c5cnc([C@@H]6C[C@H]7C[C@H]7N6C(=O)[C@@H](NC(=O)OC)C6C[C@@H](C)O[C@@H](C)C6)[nH]5)ccc4n32)s1 (single isomer, unassigned) [Compound 97]
pIC50 [1]: 10.56 | pIC50 [2]: 11.60 | pIC50 [3]: 11.52 | pIC50 [4]: 10.01 | pIC50 [5]: 9.54

CCCc1ncc(C2Oc3cc(-c4cnc([C@@H]5CCCN5C(=O)[C@@H](NC(=O)OC)C(C)C)[nH]4)cc(F)c3-c3cc4cc(-c5cnc([C@@H]6C[C@H]7C[C@H]7N6C(=O)C(NC(=O)OC)C6CCOC(C)(C)C6)[nH]5)ccc4n32)s1 (single isomer, unassigned) [Compound 104]
pIC50 [1]: 11.39 | pIC50 ([2]; Hepatitis C virus): 11.55 | pIC50 ([3]; Hepatitis C virus): 11.52 | pIC50 [4]: 11.40 | pIC50 [5]: 10.55

CCCc1ncc(C2Oc3cc(-c4cnc([C@@H]5CCCN5C(=O)[C@@H](NC(=O)OC)C(C)C)[nH]4)cc(F)c3-c3cc4cc(-c5cnc([C@@H]6C[C@H]7C[C@H]7N6C(=O)C(NC(=O)OC)C6CCOC(C)(C)C6)[nH]5)ccc4n32)s1 (single isomer, unassigned) [Compound 106]
pIC50 [1]: 10.47 | pIC50 [2]: 11.49 | pIC50 [3]: 11.30 | pIC50 [4]: 10.17 | pIC50 [5]: 9.55

CCCc1ncc(C2Oc3cc(-c4cnc([C@@H]5CCCN5C(=O)[C@@H](NC(=O)OC)C(C)C)[nH]4)cc(F)c3-c3cc4cc(-c5cnc([C@@H]6C[C@H]7C[C@H]7N6C(=O)C(NC(=O)OC)C6CCOC(C)(C)C6)[nH]5)ccc4n32)s1 (single isomer, unassigned) [Compound 107]
pIC50 [1]: 10.53 | pIC50 [2]: 11.59 | pIC50 [3]: 11.40 | pIC50 [4]: 10.77 | pIC50 [5]: 9.63

CCCc1ncc(C2Oc3cc(-c4cnc([C@@H]5CCCN5C(=O)[C@@H](NC(=O)OC)C(C)C)[nH]4)cc(F)c3-c3cc4cc(-c5cnc([C@@H]6C[C@H]7C[C@H]7N6C(=O)C(NC(=O)OC)C6C[C@@H](C)O[C@@H](C)C6)[nH]5)ccc4n32)s1 (single isomer, unassigned) [Compound 108]
pIC50 [1]: 11.48 | pIC50 ([2]; Hepatitis C virus): 11.55 | pIC50 ([3]; Hepatitis C virus): 11.40 | pIC50 [4]: 11.15 | pIC50 [5]: 10.80

CCCc1ncc(C2Oc3cc(-c4cnc([C@@H]5CCCN5C(=O)[C@@H](NC(=O)OC)C(C)C)[nH]4)cc(F)c3-c3cc4cc(-c5cnc([C@@H]6C[C@H]7C[C@H]7N6C(=O)C(NC(=O)OC)C6C[C@@H](C)O[C@@H](C)C6)[nH]5)ccc4n32)s1 (single isomer, unassigned) [Compound 109]
pIC50 [1]: 10.52 | pIC50 [2]: 11.47 | pIC50 [3]: 11.40 | pIC50 [4]: 10.16 | pIC50 [5]: 9.75

COC(=O)NC(C(=O)N1[C@@H]2C[C@@H]2C[C@H]1c1ncc(-c2ccc3c(c2)cc2n3C(c3cnc(C4CC4)s3)Oc3cc(-c4cnc([C@@H]5CC6CC6N5C(=O)[C@@H](NC(=O)OC)C(C)C)[nH]4)cc(F)c3-2)[nH]1)C1CCOC(C)(C)C1 (single isomer, unassigned) [Compound 110]
IC50 [1]: 0.003 nM | pIC50 ([2]; Hepatitis C virus): 11.48 | pIC50 ([3]; Hepatitis C virus): 11.40 | IC50 [4]: 0.007 nM | IC50 [5]: 0.027 nM

COC(=O)NC(C(=O)N1[C@@H]2C[C@@H]2C[C@H]1c1ncc(-c2ccc3c(c2)c(F)c2n3C(c3cnc(C4CC4)s3)Oc3cc(-c4cnc([C@@H]5CCCN5C(=O)[C@@H](NC(=O)OC)C(C)C)[nH]4)cc(F)c3-2)[nH]1)C1CCOC(C)(C)C1 (single isomer, unassigned) [Compound 112]
pIC50 [1]: 11.36 | pIC50 ([2]; Hepatitis C virus): 11.72 | pIC50 ([3]; Hepatitis C virus): 11.52 | pIC50 [4]: 11.40 | IC50 [5]: 0.036 nM

COC(=O)N[C@H](C(=O)N1CCC[C@H]1c1ncc(-c2cc(C)c3c(c2)OC(c2cnc(C4CC4)s2)n2c-3cc3cc(-c4cnc([C@@H]5CCCN5C(=O)[C@@H](NC(=O)OC)C(C)C)[nH]4)ccc32)[nH]1)C(C)C (single isomer, unassigned) [Compound 200]
IC50 [1]: 0.0796 nM | pIC50 ([2]; Hepatitis C virus): 11.31 | pIC50 ([3]; Hepatitis C virus): 11.52 | IC50 [4]: 0.014 nM | IC50 [5]: 0.961 nM

COC(=O)N[C@H](C(=O)N1CCC[C@H]1c1ncc(-c2cc(C)c3c(c2)OC(c2cnc(C4CC4)s2)n2c-3cc3cc(-c4cnc([C@@H]5C[C@H]6C[C@H]6N5C(=O)[C@@H](NC(=O)OC)C(C)C)[nH]4)ccc32)[nH]1)C(C)C (single isomer, unassigned) [Compound 203]
IC50 [1]: 0.0166 nM | pIC50 ([2]; Hepatitis C virus): 11.35 | pIC50 ([3]; Hepatitis C virus): 11.52 | IC50 [4]: 0.007 nM | IC50 [5]: 0.654 nM

COC(=O)N[C@H](C(=O)N1CCC[C@H]1c1ncc(-c2cc(C)c3c(c2)OC(c2cnc(C4CCC4)s2)n2c-3cc3cc(-c4cnc([C@@H]5CCCN5C(=O)[C@@H](NC(=O)OC)C(C)C)[nH]4)ccc32)[nH]1)C(C)C (single isomer, unassigned) [Compound 204]
IC50 [1]: 0.0579 nM | pIC50 ([2]; Hepatitis C virus): 11.40 | pIC50 ([3]; Hepatitis C virus): 11.70 | IC50 [4]: 0.013 nM | IC50 [5]: 0.772 nM

CCCc1ncc(C2Oc3cc(-c4cnc([C@@H]5CCCN5C(=O)[C@@H](NC(=O)OC)C(C)C)[nH]4)cc(C)c3-c3cc4cc(-c5cnc([C@@H]6C[C@H]7C[C@H]7N6C(=O)[C@@H](NC(=O)OC)C(C)C)[nH]5)ccc4n32)s1 (single isomer, unassigned) [Compound 206]
pIC50 [1]: 10.64 | pIC50 [2]: 11.15 | pIC50 ([3]; Hepatitis C virus): 11.40 | pIC50 [4]: 10.52 | IC50 [5]: 0.83 nM

COC(=O)N[C@H](C(=O)N1CCC[C@H]1c1ncc(-c2cc(C)c3c(c2)OC(c2cnc(C4CC4)s2)n2c-3cc3cc(-c4cnc([C@@H]5C[C@H]6C[C@H]6N5C(=O)[C@@H](NC(=O)OC)C(C)(C)F)[nH]4)ccc32)[nH]1)C(C)C (single isomer, unassigned) [Compound 208]
pIC50 [1]: 10.61 | pIC50 ([2]; Hepatitis C virus): 11.55 | pIC50 ([3]; Hepatitis C virus): 11.52 | pIC50 [4]: 10.96 | IC50 [5]: 0.268 nM

COC(=O)N[C@H](C(=O)N1CCC[C@H]1c1ncc(-c2cc(C)c3c(c2)OC(c2cnc(C4CCC4)s2)n2c-3cc3cc(-c4cnc([C@@H]5C[C@H]6C[C@H]6N5C(=O)[C@@H](NC(=O)OC)C(C)(C)F)[nH]4)ccc32)[nH]1)C(C)C (single isomer, unassigned) [Compound 210]
IC50 [1]: 0.0163 nM | pIC50 ([2]; Hepatitis C virus): 11.31 | pIC50 ([3]; Hepatitis C virus): 11.70 | IC50 [4]: 0.006 nM | IC50 [5]: 0.216 nM

COC(=O)NC(C(=O)N1CCC[C@H]1c1ncc(-c2ccc3c(c2)cc2n3C(c3cnc(C4CC4)s3)Oc3cc(-c4cnc([C@@H]5CCCN5C(=O)[C@@H](NC(=O)OC)C(C)C)[nH]4)cc(C)c3-2)[nH]1)C1C[C@@H](C)O[C@@H](C)C1 (single isomer, unassigned) [Compound 212]
IC50 [1]: 0.0354 nM | pIC50 ([2]; Hepatitis C virus): 11.17 | pIC50 ([3]; Hepatitis C virus): 11.10 | IC50 [4]: 0.007 nM | IC50 [5]: 0.499 nM

COC(=O)NC(C(=O)N1CCC[C@H]1c1ncc(-c2ccc3c(c2)cc2n3C(c3cnc(C4CC4)s3)Oc3cc(-c4cnc([C@@H]5CCCN5C(=O)[C@@H](NC(=O)OC)C(C)C)[nH]4)cc(C)c3-2)[nH]1)C1C[C@@H](C)O[C@H](C)C1 (single isomer, unassigned) [Compound 213]
IC50 [1]: 0.0252 nM | pIC50 ([2]; Hepatitis C virus): 11.11 | pIC50 ([3]; Hepatitis C virus): 11.15 | IC50 [4]: 0.005 nM | IC50 [5]: 0.126 nM
